Square brackets hold non-standard residues; d marks the D form. Peptide text beside a SMILES is read from it.

Consider two compounds from PMC12382740, “In Vitro and In Vivo Characterization of Novel Cathelicidin-Based Peptides with Antimicrobial Activity Against Pseudomonas aeruginosa” (Antibiotics, 2025).

The subject of this assay is human erythrocytes. As to the kind of experiment: Hemolysis assay. The conditions noted are these: for Hemolysis IC50: human erythrocytes, 4 h at 37 °C, value in brackets; for IC50: red cells of human, 4 h. It is filed as cell-based. As for the experimental part:
Commercially available human blood (IWB1K2E10ML, Innovative Research Inc., Novi, MI, USA) was used to produce a 50% haematocrit solution by mixing at 1:1 with PBS 1× (P5493, 1 L, Sigma, St. Louis, MO, USA). Three consecutive PBS 1× washes plus centrifugation at 2600 rpm for 10 min steps were performed. Finally, a 2% erythrocyte solution was prepared in PBS 1× and chilled on ice until used. Polypropylene plates were filled with 50 µL PBS 1× per well for the samples and 50 µL 2% Triton X-100 (TX-100, 9002-93-1, 100 mL, Sigma, St. Louis, MO, USA) for the hemolysis controls. A solution at 4× final concentration of the assay of each peptide was prepared in PBS and 50 µL were added to the first column of each plate, followed by serial dilutions in the microplate. Then, 50 µL of the 2% erythrocyte solution was added to each plate. […] controls consisted in a 1:1 mix of PBS 1× and erythrocytes at 2%. Plates were incubated at 37 °C for 4 h and then centrifuged at 1500 rpm for 5 min. Eighty µL were extracted from the supernatant of each well carefully and transferred to a polystyrene flat bottom plate for reading and read at 450 nm in an Epoch microplate spectrophotometer (Epoch™, BioTek, Winooski, VT, USA).
The therapeutic index is a widely accepted parameter to represent the specificity of antimicrobial peptides for prokaryotic versus eukaryotic cells. It is calculated by the ratio of HC50 (hemolytic activity) and MIC (antimicrobial activity); thus, larger values of therapeutic index indicate greater specificity for prokaryotic cells.

For the compound `CC[C@@H](C)[C@@H](NC(=O)[C@@H](CCCCN)NC(=O)[C@@H](CCCCN)NC(=O)[C@@H](CC(C)C)NC(=O)[C@@H](CCCCN)NC(=O)[C@@H](CCC(=O)O)NC(=O)[C@@H](CCCCN)NC(=O)[C@H](NC(=O)[C@@H](CCCCN)NC(=O)[C@@H](CC(N)=O)NC(=O)[C@@H](CCCNC(=N)N)NC(=O)[C@@H](Cc1ccccc1)NC(=O)[C@@H](CCCCN)NC(=O)[C@@H](CCCNC(=N)N)NC(=O)[C@@H](CC(C)C)NC(=O)[C@@H](CCCNC(=N)N)NC(=O)[C@@H](CCCCN)NC(=O)[C@@H](CCCNC(=N)N)NC(=O)[C@@H](CC(C)C)NC(=O)CN)[C@H](C)CC)C(=O)NCC(=O)N[C@H](CCC(N)=O)C(=O)N[C@H](CCCCN)C(=O)N[C@@H](C(=O)N[C@H](CCC(N)=O)C(=O)NCC(=O)N[C@H](CC(C)C)C(=O)N[C@H](CC(C)C)C(=O)N1CCC[C@@H]1C(=O)N[C@H](CCCCN)C(=O)N[C@H](CC(C)C)C(=O)O)[C@H](C)CC` [D-CAP-18_31, Glrkrlrkfrnkikeklkkigqkiqgllpkl] (H-G[dL][dR][dK][dR][dL][dR][dK][dF][dR][dN][dK][dI][dK][dE][dK][dL][dK][dK][dI]G[dQ][dK][dI][dQ]G[dL][dL][dP][dK][dL]-OH), the “Hemolysis IC50” value turned out to be 404.48 µg/mL and inhibition was half-maximal at 108 µM (IC50).

On to “H-GLRKRLRKFRNKIKEKLKKIGQKIQGLLPKL-OH [CAP-18_31]”, for which the “Hemolysis IC50” value came to 690.97 µg/mL and the IC50 – broadly, the concentration needed to halve the response being measured – is 185 µM.
